The subject of assay [1] is OVCAR-3. Briefly: Cytotoxicity against human OVCAR-3 after 48 hrs. The class given is functional. The conditions noted are these: OVCAR-3, 48 h, read-out: CD50 (the source's name).
Assay [2] has as its system OVCAR-3. Description: Cytotoxicity against human OVCAR-3 upto 20 ug/mL after 48 hrs. The class given is functional, cell-based.

≈ marks a conversion by molar mass, not a printed value. Calls of active or inactive are those of the source. No cut-off for these calls is given here.

Take `COc1cc(/C=C/C(O)=C/C(=O)/C=C/c2ccc(O)cc2)ccc1O` [DEMETHOXYCURCUMIN]: the CC50 in assay [1] was 3.8 µg/mL (≈ 11.2 µM).

Consider `COc1cc(/C=C/C(=O)CC(=O)/C=C/c2ccc(O)c(OC)c2)ccc1O` [CURCUMIN], for which the CC50 in assay [1] stood at 4.4 µg/mL (≈ 11.9 µM).

With `Cc1coc2c1C(=O)[C@@H]1[C@@](C)(C2)[C@H](O)CC[C@@]1(C)O`, the result in assay [2] was inactive.

Take `C=C(C)[C@@H]1CC[C@](C)(O)[C@H]2CC[C@](C)(O)[C@H]2C1`: in assay [2], the outcome was inactive.

On to `O=C(/C=C/c1ccc(O)cc1)CC(=O)/C=C/c1ccc(O)cc1` [BISDEMETHOXYCURCUMIN], for which the CC50 in assay [1] was found to be 3.1 µg/mL (≈ 10.1 µM).

Turning to `Cc1cc(C(=O)O)cc2c1CCC2C` (stereo unspecified), the outcome in assay [2] was inactive.

For the origin of these results see ChEMBL document CHEMBL1151327, “Cytotoxicity of curcuminoids and some novel compounds from Curcuma zedoaria” (1998).
